This assay has as its target T1, human PKCθ full length enzyme (Homo sapiens, UniProt Q04759).
T1 construct: human PKCθ full length enzyme (Panvera Cat# P2996); purchased Panvera P2996
Put plainly: PKCθ IMAP assay (fluorescence polarization). The format is biochemical. The settings on record: human PKCθ full length enzyme, IMAP; average value; read-out: IC50 PKCθ IMAP. On the technique in general: Polarisation of emitted light reports the rotation of a fluorescent probe.

T1 sequence (Q04759 whole entry): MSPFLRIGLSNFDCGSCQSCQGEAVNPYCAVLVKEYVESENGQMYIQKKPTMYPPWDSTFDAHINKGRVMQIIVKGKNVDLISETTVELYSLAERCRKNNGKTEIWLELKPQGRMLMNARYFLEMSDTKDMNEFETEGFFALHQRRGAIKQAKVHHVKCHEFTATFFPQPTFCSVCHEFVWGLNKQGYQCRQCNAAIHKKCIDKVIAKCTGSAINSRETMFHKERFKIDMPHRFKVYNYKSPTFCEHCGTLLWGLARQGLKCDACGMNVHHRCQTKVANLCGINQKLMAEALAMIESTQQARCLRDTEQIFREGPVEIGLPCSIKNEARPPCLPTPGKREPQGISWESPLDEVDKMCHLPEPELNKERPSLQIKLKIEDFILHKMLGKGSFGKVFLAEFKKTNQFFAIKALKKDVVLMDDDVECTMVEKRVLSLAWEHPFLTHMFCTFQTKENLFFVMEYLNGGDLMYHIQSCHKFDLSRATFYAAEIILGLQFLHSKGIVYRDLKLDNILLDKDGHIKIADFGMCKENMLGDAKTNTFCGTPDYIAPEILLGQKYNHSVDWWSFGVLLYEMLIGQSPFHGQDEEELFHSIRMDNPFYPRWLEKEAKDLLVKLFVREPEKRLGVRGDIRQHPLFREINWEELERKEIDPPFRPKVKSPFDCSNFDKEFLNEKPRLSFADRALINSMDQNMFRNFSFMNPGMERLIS

As a reminder, the IC50 is the concentration needed to halve the response being measured. Take `COc1ccc(-c2cncc(C#N)c2Nc2cccc3[nH]ccc23)cc1OCCNCCCN1CCOCC1` [Compound 364, 4-(1H-indol-4-ylamino)-5-(4-methoxy-3-{2-[(3-morpholin-4-ylpropyl)amino]ethoxy}phenyl)nicotinonitrile]: the half-maximal inhibitory concentration (IC50) came to 10 nM.

`COc1ccc(-c2cncc(C#N)c2Nc2cccc3[nH]ccc23)cc1OCCNCCCn1ccnc1` [Compound 365, 5-[3-(2-{[3-(1H-imidazol-1-yl)propyl]amino}ethoxy)-4-methoxyphenyl]-4-(1H-indol-4-ylamino)nicotinonitrile]: the half-maximal inhibitory concentration (IC50) is 4 nM. Then `N#Cc1cncc(-c2cccc(OC[C@@H](N)Cc3ccccc3)c2)c1Nc1cccc2[nH]ccc12` [Compound 366, 5-(3-{[(2S)-2-amino-3-phenylpropyl]oxy}phenyl)-4-(1H-indol-4-ylamino)nicotinonitrile], with 20 nM. Then `Cc1c(Nc2c(C#N)cncc2-c2cc3cc(CNCc4ccccc4)ccc3s2)ccc2[nH]ccc12` [Compound 367, 5-{5-[(benzylamino)methyl]-1-benzothien-2-yl}-4-[(4-methyl-1H-indol-5-yl)amino]nicotinonitrile], with 3 nM; and `CCCCN1CCN(CCOc2ccc(-c3cncc(C#N)c3Nc3ccc4[nH]ccc4c3C)cc2)CC1` [Compound 368, 5-{4-[2-(4-butylpiperazin-1-yl)ethoxy]phenyl}-4-[(4-methyl-1H-indol-5-yl)amino]nicotinonitrile], with 10 nM. `N#Cc1cncc(-c2cc3cc(C4OCCCO4)ccc3o2)c1Nc1cccc2[nH]ccc12` [Compound 369, 5-[5-(1,3-dioxan-2-yl)-1-benzofuran-2-yl]-4-(1H-indol-4-ylamino)nicotinonitrile]: the IC50 is 40 nM.

For `Cc1c(Nc2c(C#N)cncc2-c2cc3cc(C4OCCCO4)ccc3o2)ccc2[nH]ccc12` [Compound 370, 5-[5-(1,3-dioxan-2-yl)-1-benzofuran-2-yl]-4-[(4-methyl-1H-indol-5-yl)amino]nicotinonitrile], the 50% inhibitory concentration (IC50) was 4 nM.

On to `COc1ccc(-c2cncc(C#N)c2Nc2ccc3[nH]ccc3c2C)c(Cl)c1` [Compound 371, 5-(2-chloro-4-methoxyphenyl)-4-[(4-methyl-1H-indol-5-yl)amino]nicotinonitrile], for which the half-inhibitory concentration (IC50) is 30 nM. With `COc1cc(-c2cncc(C#N)c2Nc2ccc3[nH]ccc3c2C)ccc1OCCCl` [Compound 372, 5-[4-(2-chloroethoxy)-3-methoxyphenyl]-4-[(4-methyl-1H-indol-5-yl)amino]nicotinonitrile] the figure was 7 nM; with `N#Cc1cncc(-c2cc3ccccc3o2)c1Nc1ccc2[nH]ncc2c1` [Compound 373, 5-(1-benzofuran-2-yl)-4-(1H-indazol-5-ylamino)nicotinonitrile], 1000 nM. With `Cc1c(Nc2c(C#N)cncc2-c2ccc(O)cc2)ccc2[nH]ccc12` [Compound 374, 5-(4-hydroxyphenyl)-4-[(4-methyl-1H-indol-5-yl)amino]nicotinonitrile] the figure was 20 nM. On to `COc1cccc(Cl)c1-c1cncc(C#N)c1Nc1ccc2[nH]ccc2c1C` [Compound 375, 5-(2-chloro-6-methoxyphenyl)-4-[(4-methyl-1H-indol-5-yl)amino]nicotinonitrile], for which the concentration for half-maximal inhibition (IC50) worked out at 150 nM. On to `COc1cc(-c2cncc(C#N)c2Nc2ccc3[nH]ccc3c2C)ccc1OCCN1CCCCC1` [Compound 376, 5-[3-methoxy-4-(2-piperidin-1-ylethoxy)phenyl]-4-[(4-methyl-1H-indol-5-yl)amino]nicotinonitrile], for which the 50% inhibitory concentration (IC50) stood at 20 nM.

`COc1cc(-c2cncc(C#N)c2Nc2ccc3[nH]ccc3c2C)ccc1OCCN1CCN(C)CC1` [Compound 377, 5-{3-methoxy-4-[2-(4-methylpiperazin-1-yl)ethoxy]phenyl}-4-[(4-methyl-1H-indol-5-yl)amino]nicotinonitrile]: the half-inhibitory concentration (IC50) is 10 nM.
